Where two headings read alike, the source gives them in different places.
Biological target: WDR5 protein (Homo sapiens (Human), UniProt P61964)
Test: Surface Plasmon Resonance (SPR) assay
Assay type: binding
Conditions: for residence time: τ=1/koff, read-out: Residence Time (t, min)
[1] = SPR, Table 1, read-out: WDR5 binding affinity (KD)
[2] = SPR, Table 2, read-out: WDR5 binding affinity SPR (KD)

Compound	Kd [1] [nM]	Kd [2] [nM]	residence time (SPR) [min]	Kd [nM]	Kd (Table 4, effect of Fluoro-substitution, read-out: KD (SPR)) [nM]
COc1cc(C(F)(F)F)c(C(=O)Nc2cc(-c3cc(CN4CCOC(C)(C)C4)ccc3F)ccc2N2CCN(C)CC2)cn1 [Example 59, N-(5′-((2,2-dimethylmorpholino)methyl)-2′-fluoro-4-(4-methylpiperazin-1-yl)-[1,1′-biphenyl]-3-yl)-6-methoxy-4-(trifluoromethyl)nicotinamide]	> 200	> 200			
CN1CCN(c2ccc(-c3cc(C(N)=O)c(O)cc3F)cc2NC(=O)c2c[nH]c(=O)cc2C(F)(F)F)CC1 [Example 4, N-(5′-carbamoyl-2′-fluoro-4′-hydroxy-4-(4-methylpiperazin-1-yl)-[1,1′-biphenyl]-3-yl)-6-oxo-4-(trifluoromethyl)-1,6-dihydropyridine-3-carboxamide]	86	86	0.88		
C[C@@H]1CN(c2ccc(-c3c(F)ccc(C#N)c3F)cc2NC(=O)c2c[nH]c(=O)cc2C(F)(F)F)C[C@H](C)N1C [Example 78, N-(3′-cyano-2′,6′-difluoro-4-((3S,5R)-3,4,5-trimethylpiperazin-1-yl)-[1,1′-biphenyl]-3-yl)-6-oxo-4-(trifluoromethyl)-1,6-dihydropyridine-3-carboxamide]	39	39	2.5		
C[C@@H]1CN(c2ccc(-c3ccc(F)c(CN(C)C4COC4)c3F)cc2NC(=O)c2c[nH]c(=O)cc2C(F)(F)F)C[C@H](C)N1C [Example 112, N-(2′,4′-difluoro-3′-((methyl(oxetan-3-yl)amino)methyl)-4-((3S,5R)-3,4,5-trimethylpiperazin-1-yl)-[1,1′-biphenyl]-3-yl)-6-oxo-4-(trifluoromethyl)-1,6-dihydropyridine-3-carboxamide]	23	23	1.3		
CN1CCN(c2ccc(-c3ccccc3F)cc2NC(=O)c2c[nH]c(=O)cc2C(F)(F)F)CC1 [Example 25, N-(2′-fluoro-4-(4-methylpiperazin-1-yl)-[1,1′-biphenyl]-3-yl)-6-oxo-4-(trifluoromethyl)-1,6-dihydropyridine-3-carboxamide]	102	102	0.94		
C[C@@H]1CN(c2ccc(-c3ccc(C(=O)NC(C)(C)CC(C)(C)C)c(F)c3F)cc2NC(=O)c2c[nH]c(=O)cc2C(F)(F)F)C[C@H](C)N1C [Example 122, N-(2′,3′-difluoro-4′-((2,4,4-trimethylpentan-2-yl)carbamoyl)-4-((3S,5R)-3,4,5-trimethylpiperazin-1-yl)-[1,1′-biphenyl]-3-yl)-6-oxo-4-(trifluoromethyl)-1,6-dihydropyridine-3-carboxamide]	7.6	8	6.7		
CN1CCN(c2ccc(-c3cc(OCC4CC4)c(F)cc3F)cc2NC(=O)c2c[nH]c(=O)cc2C(F)(F)F)CC1 [Example 21, N-(5′-(cyclopropylmethoxy)-2′,4′-difluoro-4-(4-methylpiperazin-1-yl)-[1,1′-biphenyl]-3-yl)-6-oxo-4-(trifluoromethyl)-1,6-dihydropyridine-3-carboxamide]	19	19	1.75		
Cc1cc(C(=O)Nc2cc(-c3ccc(OC4CCOCC4)nc3F)ccc2N2CCN(C)CC2)cc(C)c1F [Example 19, 4-fluoro-N-(5-(2-fluoro-6-((tetrahydro-2H-pyran-4-yl)oxy)pyridin-3-yl)-2-(4-methylpiperazin-1-yl)phenyl)-3,5-dimethylbenzamide]	71	71	1.44		
C[C@@H]1CN(c2ccc(-c3ccc(N4CCOCC4)cc3F)cc2NC(=O)c2c[nH]c(=O)cc2C(F)(F)F)C[C@H](C)N1C [Example 118, N-(2′-fluoro-4′-morpholino-4-((3S,5R)-3,4,5-trimethylpiperazin-1-yl)-[1,1′-biphenyl]-3-yl)-6-oxo-4-(trifluoromethyl)-1,6-dihydropyridine-3-carboxamide]		6	7.2	5.6	
Cc1cc(C(=O)Nc2cc(-c3cc(CN4CCOCC4)ccc3F)ccc2N2CCN(CC(F)(F)F)CC2)cc(C)c1F [Example 95, 4-fluoro-N-(2′-fluoro-5′-(morpholinomethyl)-4-(4-(2,2,2-trifluoroethyl)piperazin-1-yl)-[,1′-biphenyl]-3-yl)-3,5-dimethylbenzamide]	> 200	> 200			
C[C@@H]1CN(c2ccc(-c3ccc(C(N)=O)cc3F)cc2NC(=O)c2c[nH]c(=O)cc2C(F)(F)F)C[C@H](C)N1C [Example 117, N-(4′-carbamoyl-2′-fluoro-4-((3S,5R)-3,4,5-trimethylpiperazin-1-yl)-[1,1′-biphenyl]-3-yl)-6-oxo-4-(trifluoromethyl)-1,6-dihydropyridine-3-carboxamide]	1.7	1.6	7.9		
CN1CCN(c2ccc(-c3cc(CN4CCOCC4)ccc3F)cc2NC(=O)c2nc3ccccc3[nH]2)CC1 [Example 103, N-(2′-fluoro-4-(4-methylpiperazin-1-yl)-5′-(morpholinomethyl)-[1,1′-biphenyl]-3-yl)-1H-benzo[d]imidazole-2-carboxamide]	> 200	> 200			
COc1cccc(C(=O)Nc2cc(-c3cc(CN4CCOCC4)ccc3F)ccc2N2CCN(C)CC2)c1 [Example 10, N-(2′-fluoro-4-(4-methylpiperazin-1-yl)-5′-(morpholinomethyl)-[1,1′-biphenyl]-3-yl)-3-methoxybenzamide]	1000	1000			
Cc1cccc(C(=O)Nc2cc(-c3cc(CN4CCOCC4)ccc3F)ccc2N2CCN(C)CC2)c1 [Example 24, N-(2′-fluoro-4-(4-methylpiperazin-1-yl)-5′-(morpholinomethyl)-[1,1′-biphenyl]-3-yl)-3-methylbenzamide]	5030	5030			
COc1cc(C(F)(F)F)c(C(=O)Nc2cc(-c3cc(CN4CCN(C(C)=O)CC4)ccc3F)ccc2N2CCN(C)CC2)cn1 [Example 54, N-(5′-((4-acetylpiperazin-1-yl)methyl)-2′-fluoro-4-(4-methylpiperazin-1-yl)-[1,1′-biphenyl]-3-yl)-6-methoxy-4-(trifluoromethyl)nicotinamide]	> 200	> 200			
CN1CCN(c2ccc(-c3cc(CN4CCOCC4)ccc3F)cc2NC(=O)c2n[nH]c(=O)cc2C(F)(F)F)CC1 [Example 20, N-(2′-fluoro-4-(4-methylpiperazin-1-yl)-5′-(morpholinomethyl)-[1,1′-biphenyl]-3-yl)-6-oxo-4-(trifluoromethyl)-1,6-dihydropyridazine-3-carboxamide]	76	76	0.41		
CN1CCN(c2ccc(-c3cc(CN4CCOCC4)ccc3Cl)cc2NC(=O)c2c[nH]c(=O)cc2C(F)(F)F)CC1 [drawing 288, reference compound]					34.5
Cc1cc(C(=O)Nc2cc(-c3cc(CN4CCOCC4)ccc3F)ccc2N2CCC(N(C)C)C2)cc(C)c1F (centres unmarked) [Example 91, N-(4-(3-(dimethylamino)pyrrolidin-1-yl)-2′-fluoro-5′-(morpholinomethyl)-[1,1′-biphenyl]-3-yl)-4-fluoro-3,5-dimethylbenzamide]	316	316			
CN1CCN(c2ccc(-c3cc(CN4CCOCC4)ccc3F)cc2NC(=O)c2cnc(N)cc2C(F)(F)F)CC1 [Example 109, 6-amino-N-(2′-fluoro-4-(4-methylpiperazin-1-yl)-5′-(morpholinomethyl)-[1,1′-biphenyl]-3-yl)-4-(trifluoromethyl)nicotinamide]	> 200	> 200			

— patent US11174250B2, “Substituted carboxamides as inhibitors of WDR5 protein-protein binding” (PROPELLON THERAPEUTICS INC., priority 2016, dated 2021)
